Measured values from PMC9814792 (Communications Chemistry, 2022).

How the values were obtained:
[1] = Aqueous stability in phosphate buffer by UHPLC; format: physicochemical; conditions: for UHPLC peak integral, stability: method A
Experimental: (§1) For stability measurements BSO-OxOAc (1 mM) was dissolved in phosphate buffer (100 mM, pH 7.4). For reduction experiments BSO-OxOAc (2 mM) was dissolved in phosphate buffer (500 mM, pH 7.4). A 20 mM solution of AA in the same buffer was added in a 1:1 ratio. The samples were immediately measured on a Dionex UltiMate 3000 RS UHPLC system equipped with a Waters Acquity UPLC® BEH C18 column (3×50 mm, pore size 1.7 µm), and absorption detection at 230 nm with incubation at 20 °C (Gradients: Method A: 0.0−0.5 min: 5% eluent B in eluent A; 0.5–5.5 min: 5-95% eluent B; 5.5–8.0 min: 95 % eluent B (eluent A = 0.1% formic acid in water, eluent B = 0.1 % formic acid in acetonitrile), method B: 0.0 − 0.5 min: 5% eluent B in eluent A; 0.5–5.5 min: 5-95% eluent B; 5.5–7.1 min: 95 % eluent B (eluent A = 0.1% formic acid in water, eluent B = 0.1 % formic acid in methanol). Data points were taken every 30 min for 6 h and at 24 h and 24.5 h.

[2] = Reduction kinetics with 10-fold excess of ascorbic acid by UHPLC; format: physicochemical; conditions: 10 mM AA; for UHPLC peak integral, reduction: method B
Experimental: as §1

albumin = biological target: T1, albumin (Bos taurus, UniProt P02769); assay: Albumin binding in fetal calf serum by SEC-ICP-MS; format: in vitro ADME; conditions: fetal calf serum 37 °C, 100 μM
T1 construct: tissue Sigma-Aldrich; host or cells: fetal calf serum
Experimental: Fetal calf serum was purchased from Sigma-Aldrich and buffered with 150 mM phosphate buffer (pH 7.4) to guarantee a stable pH. The platinum(IV) complexes were dissolved in 150 mM phosphate buffer (pH 7.4) to 1 mM and diluted 1:10 in serum to obtain a final concentration of 100 μM. The samples were then incubated in the autosampler at 37 °C for 24 h and analyzed at 0 h, 1 h, 4 h, and 24 h. Between each sample, a pure water blank was measured. For SEC-ICP-MS measurements, an Agilent 1260 Infinity system coupled to an Agilent 7800 ICP-MS equipped with a dynamic reaction cell was used. Oxygen (purity 5.5, Messer AustriaGmbH, Gumpoldskirchen, Austria) was used as reaction gas at 30% and 0.9 L/min flow.

A2780/Cis cells = assay: 72 h cell viability (MTT) assay; format: cell-based, human
Experimental: Cells were seeded (3–4 ×10^3 cells/well) in 96-well plates in 100 µL and after 24 h recovery treated with 100 µL of compounds at the indicated concentrations in triplicates. After 72 h drug exposure cell viability was determined by 3-(4,5-dimethylthiazol-2-yl)-2,5-diphenyltetrazolium bromide (MTT)-vitality assay (EZ4U, Biomedica, Vienna, Austria) following the manufacturer’s recommendations, as published. Absorbance was measured at 450 nm (at 620 nm as reference) using the multimode plate reader Tecan Infinite 200 Pro (Zurich, Switzerland). Cytotoxicity was expressed as IC50 values calculated from full dose-response curves using the 4 parameter nonlinear regression model of GraphPad Prism 8 software (La Jolla, CA, USA).

[3] = tested on: HCT116 and HCT116/OxR cells; assay: In vitro platinum cell uptake by ICP-MS; format: cell-based, human; conditions: 3 h exposure
Experimental: Cells were seeded at 1.5 ×10^5 cells/well in six-well plates in 1.5 mL and after 24 h recovery treated with 500 µL of compounds at the indicated concentrations in triplicates. After 3 h drug exposure, cells were detached, washed twice with phosphate-buffered saline (PBS), dried at RT for 15 min and lysed in 100 µL HNO3 (69%, Rotipuran Supra, Carl Roth, Karlsruhe, Germany) for 1 h at RT. The lysate was added to fresh tubes containing 200 µL ddH2O. ICP-MS measurements were performed with an Agilent 8800 ICP-MS/MS instrument (Agilent Technologies, Tokyo, Japan). The sample introduction system consisted of a MicroMist nebulizer (200 μL min^−1 nominal sample uptake) and a quartz double-pass spray chamber. The instrument was tuned on a daily basis in order to achieve maximum sensitivity, low oxide formation, and low doubly charged ratios. Platinum was monitored in no gas mode with an integration time of 0.3 s. The flow injection measurements were performed with a bioinert HPLC 1260 (Agilent Technologies, Waldbronn, Germany), which was directly connected to the nebulizer of the ICP-MS/MS instrument with a PEEK tubing. The following chromatographic conditions were used: injection volume: 10 µL; flow rate: 0.30 mL min^-1; isocratic elution; CH3COONH4 (50 mM, pH = 6.8) aqueous solution was employed as mobile phase. The data were recorded and evaluated with the Agilent MassHunter Chromatography software package, MassHunter 4.6., 2019.

[4] = tested on: HCT116 and HCT116/OxR cells; assay: Cellular GSH content (GSH/GSSG-Glo); format: cell-based, human; conditions: 24 h exposure, single agent
Experimental: GSH levels in HCT116 and HCT116/OxR cells (7.5 × 10^4 cells per well in 96-well plates, in triplicate), or in CT26 tumor tissues (25–50 mg/sample) were determined using the luminescence-based detection system GSH/GSSG-Glo^TM assay (Promega, Madison, WI) following the manufacturer’s recommendations. Quantifications are based on the comparison with a GSH standard curve delivered in the assay and normalized to the total protein content of the samples determined by the Micro BCA^TM protein assay kit (Thermo Scientific).

CT26 allografts = assay: In vivo anticancer activity, CT26 allografts; design: species or system BALB/c mice
Experimental: Eight-to nine-week-old female BALB/c mice bred in-house (originally Janvier) were kept in pathogen-free conditions and controlled environment with 12 h light-dark cycle. CT26 cells (5 × 10^5 in 50 µL serum-free RPMI medium) were injected subcutaneously (s.c.) into the right flank of the animals. […] Tumor growth was evaluated by daily recording of tumor size by caliper measurement. […] The reasons were primarily either enhanced tumor size or ulceration. For drug distribution (digestion and ICP-MS measurement details see below), histological and GSH determination experiments, mice were treated twice during one week and sacrificed 24 h after the last drug dosing. The animal experiments were performed according to the regulations of the Ethics Committee for the Care and Use of Laboratory Animals at the Medical University Vienna (proposal number BMBWF-V/3b 2020-0.380.502).

T1 sequence (P02769 25-607): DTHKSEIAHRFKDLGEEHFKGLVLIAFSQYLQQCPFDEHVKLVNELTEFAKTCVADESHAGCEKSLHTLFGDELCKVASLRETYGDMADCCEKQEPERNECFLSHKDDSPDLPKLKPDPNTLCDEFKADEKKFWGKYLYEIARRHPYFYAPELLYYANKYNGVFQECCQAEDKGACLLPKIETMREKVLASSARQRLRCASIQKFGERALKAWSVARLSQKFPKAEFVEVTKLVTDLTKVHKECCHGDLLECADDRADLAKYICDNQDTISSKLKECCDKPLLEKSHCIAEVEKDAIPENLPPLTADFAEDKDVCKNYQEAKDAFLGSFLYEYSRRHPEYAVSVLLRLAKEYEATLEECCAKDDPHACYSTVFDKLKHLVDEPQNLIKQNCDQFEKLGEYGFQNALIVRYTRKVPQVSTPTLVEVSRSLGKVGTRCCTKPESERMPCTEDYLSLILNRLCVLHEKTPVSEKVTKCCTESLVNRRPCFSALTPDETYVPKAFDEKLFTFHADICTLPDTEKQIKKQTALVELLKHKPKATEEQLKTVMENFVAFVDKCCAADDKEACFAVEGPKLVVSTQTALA

CCCCS(=N)(=O)CCC(NC(=O)[O][Pt]1([O]C(C)=O)[O]C(=O)C(=O)[O]1)C(=O)O.NC1CCCCC1N (mixture of isomers) [BSO-OxOAc, (OC-6-34)-Acetato(((1 S)-3-(butylsulfonimidoyl)-1-carboxypropyl)carbamato)((1 R,2 R)-1,2-cyclohexanediamino)oxalatoplatinum(IV)]
calculated half-life, aqueous stability ([1]; 1 mM, 100 mM phosphate buffer pH 7.4, 20 °C): ~ 240 h
UHPLC peak integral, stability ([1]; t=0, 1 mM): 70.47 mAU
UHPLC peak integral, stability ([1]; t=24 h, 1 mM): 66.25 mAU
t½ reduction kinetics ([2]; 1 mM complex, 500 mM phosphate buffer pH 7.4, 20 °C): ~ 51 h
UHPLC peak integral, reduction ([2]; t=0, 1 mM): 11.87 mAU
UHPLC peak integral, reduction ([2]; t=24 h, 1 mM): 9.1 mAU
bound to albumin fraction (albumin; t 0 h): 0%
free (low molecular weight fraction) (albumin; t 0 h): 100%
bound to albumin fraction (albumin; t 1 h): 0%
free (low molecular weight fraction) (albumin; t 1 h): 100%
bound to albumin fraction (albumin; t 4 h): 0%
free (low molecular weight fraction) (albumin; t 4 h): 100%
bound to albumin fraction (albumin; t 24 h): 0%
free (low molecular weight fraction) (albumin; t 24 h): 100%
IC50 (A2780/Cis cells; A2780/Cis, 72 h continuous exposure, read-out: IC50 value (95% confidence interval)): 28.5 µM
resistance factor (A2780/Cis cells; IC50 A2780/Cis divided by IC50 A2780): 1.4
intracellular accumulation in HCT116/OxR as compared to parental HCT116 [3]: only non-significantly altered
overall cellular platinum accumulation compared between compounds ([3]; both cell models): distinctly lower than of oxaliplatin
impact on cellular GSH content [4]: moderately
tumor doubling time extended (CT26 allografts; CT26 allografts, twice a week for two weeks, equimolar doses): 1.2 fold
maximal tumor growth inhibition (CT26 allografts; day 11, CT26 allografts, twice a week for two weeks, equimolar to 9 mg/kg oxaliplatin i.v.): 51.3%
tumor volumes as compared to solvent controls (CT26 allografts; first two weeks of treatment): significantly reduced tumor volumes
